Results as given in article PMC6274445, “Compound Library Screening Identified Cardiac Glycoside Digitoxin as an Effective Growth Inhibitor of Gefitinib-Resistant Non-Small Cell Lung Cancer via Downregulation of α-Tubulin and Inhibition of Microtubule Formation” (Molecules, 2016).

Target: T1, Na+/K+-ATPase
T1 construct: gene ATP1A1
Test: in vitro enzymatic assay, inorganic phosphate release during ATP hydrolysis (Taussky-Shorr, […] nm)
Assay type: biochemical

Structure (SMILES): C[C@H]1O[C@@H](O[C@H]2[C@@H](O)C[C@H](O[C@H]3[C@@H](O)C[C@H](O[C@H]4CC[C@@]5(C)[C@H](CC[C@@H]6[C@@H]5CC[C@]5(C)[C@@H](C7=CC(=O)OC7)CC[C@]65O)C4)O[C@@H]3C)O[C@@H]2C)C[C@H](O)[C@@H]1O [Digitoxin]
- EC50: 0.78 µM
